Measurements from PubChem BioAssay (NCI).
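Growth conditions: 96-well plates. Treatment: test compound, 48 hours, 5 concentrations. Analysis: linear interpolation between bracketing concentrations; unreached endpoints set to highest concentration. GI50 marks 50% less growth. The concentration for full growth arrest is given as TGI.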

How the values were obtained:
Experiment in all cases: DTP human tumour cell line panel, 48 h
A549 NSCLC = test system: A549 NSCLC
DMS 273 small cell lung = test system: DMS 273 small cell lung
HCT-116 colon = test system: HCT-116 colon
HOP-92 NSCLC = test system: HOP-92 NSCLC
M14 melanoma = test system: M14 melanoma
RPMI-8226 leukemia = test system: RPMI-8226 leukemia
SK-MEL-2 melanoma = test system: SK-MEL-2 melanoma
SK-MEL-5 melanoma = test system: SK-MEL-5 melanoma
SK-MEL-28 melanoma = test system: SK-MEL-28 melanoma
MDA-MB-435 = test system: MDA-MB-435

Compound	TGI (A549 NSCLC)	TGI (DMS 273 small cell lung)	TGI (HCT-116 colon)	TGI (HOP-92 NSCLC)	TGI (M14 melanoma)	TGI (RPMI-8226 leukemia)	TGI (SK-MEL-2 melanoma)	TGI (SK-MEL-5 melanoma)	GI50 (DMS 273 small cell lung)	GI50 (HOP-92 NSCLC)	TGI (SK-MEL-28 melanoma)	TGI (MDA-MB-435)	GI50 (A549 NSCLC)	GI50 (HCT-116 colon)	GI50 (M14 melanoma)	GI50 (MDA-MB-435)	GI50 (RPMI-8226 leukemia)	GI50 (SK-MEL-2 melanoma)	GI50 (SK-MEL-28 melanoma)	GI50 (SK-MEL-5 melanoma)
CC1(C)CCc2cc3c(cc2O1)OC(C)(C)CC3=O	> 100 µM	> 100 µM	> 100 µM	70.7 µM	> 100 µM	> 100 µM	> 100 µM	52.2 µM												
CN(C)C=O.CN(C)C=O.CN1C(C(=O)Nc2ccccn2)=C([O-])c2ccccc2S1(=O)=O.CN1C(C(=O)Nc2ccccn2)=C([O-])c2ccccc2S1(=O)=O.[Cu+2]	> 100 µM	> 100 µM	> 100 µM	51.1 µM	> 100 µM	> 100 µM	> 100 µM	36.8 µM	35.9 µM	22.1 µM	> 100 µM									
CCCCCCCCCCCCCCC(C(=O)[O-])[n+]1ccccc1 (stereo not given)	> 100 µM		> 100 µM	> 100 µM	> 100 µM	> 100 µM	> 100 µM	> 100 µM			> 100 µM	> 100 µM								
COc1cc2c(cc1OCCCOc1cc3c(cc1OC)C(=O)N1CC(F)(F)C[C@H]1C=N3)N=C[C@@H]1CC(F)(F)CN1C2=O	> 100 µM		2.25 µM	7.73 µM	3.7 µM	5.79 µM	12.8 µM	2.39 µM		0.336 µM	5.47 µM	4.91 µM	3.79 µM	0.415 µM	0.698 µM	1.6 µM	1.64 µM	2.32 µM	1.95 µM	1.15 µM
COC(=O)C12OCC34C(CC5C(C)C6=CC(=O)OC6=CC5(C)C3C(O)C1O)OC(=O)C(OC(C)=O)C24 (stereo not given)	49.9 µM	30.2 µM	37.2 µM	35.2 µM	32.8 µM	40.5 µM	21 µM	24.9 µM			30.1 µM									
Cc1cccc(NC(N)=S)c1			> 100 µM		> 100 µM		> 100 µM				> 100 µM									
NC(CCCNc1ccc(O)cc1)C(=O)O (stereo not given)	> 100 µM	> 100 µM	32.1 µM	63.3 µM	> 66.9 µM	54.8 µM	> 66.8 µM	63.8 µM			> 100 µM									
NS(=O)(=O)c1ccc(C(=O)O)cc1	> 100 µM		> 100 µM	> 100 µM	> 100 µM	> 100 µM	> 100 µM	> 100 µM			> 100 µM	> 100 µM								
COc1ccc2c(c1)C(=O)c1c-2n(CCCCl)c(=O)c2cc([N+](=O)[O-])ccc12	> 100 µM		0.737 µM		0.361 µM	1.6 µM	> 95.6 µM	2.07 µM			> 100 µM	9.22 µM	0.196 µM			0.985 µM	0.075 µM	3.56 µM	2.64 µM	0.498 µM
Nc1ccc([As](=O)(O)O)cc1	> 100 µM		> 100 µM	> 100 µM	> 100 µM		> 100 µM	> 100 µM			> 100 µM	> 100 µM								
Cn1ncc2c(=O)[nH]c(-c3ccccc3)nc21	> 100 µM	> 100 µM			> 100 µM	> 100 µM	> 100 µM	> 100 µM			> 100 µM									
CC(C)(c1ccccc1)c1ccc(Oc2ccc3c(c2)-c2nc-3nc3[nH]c(nc4nc(nc5[nH]c(n2)c2ccc(Oc6ccc(C(C)(C)c7ccccc7)cc6)cc52)-c2cc(Oc5ccc(C(C)(C)c6ccccc6)cc5)ccc2-4)c2ccc(Oc4ccc(C(C)(C)c5ccccc5)cc4)cc32)cc1	> 100 µM	> 100 µM	> 100 µM	> 100 µM	> 100 µM	> 100 µM	> 100 µM	> 100 µM			> 100 µM									
O=C1CC(c2ccccc2)NCCCCN2CC(CN1)C(C(O)c1ccccc1)C2=O (stereo not given)	> 100 µM		> 100 µM	> 100 µM	> 100 µM		> 100 µM	> 100 µM			> 100 µM	> 100 µM								
O=C(O)\C=C/C=C/C=C/C=C/C(=O)O	> 100 µM	> 100 µM	> 100 µM		> 100 µM	> 100 µM	> 100 µM	> 100 µM			> 100 µM									
CC1(C)CCCC2(C)C3=C(CCC12)C(=O)OC3 (stereo not given)	> 100 µM		> 100 µM	> 100 µM	> 100 µM	68.5 µM	> 100 µM	> 100 µM			> 100 µM	> 100 µM								
